Results: patent US11479551B2, “MTA-cooperative PRMT5 inhibitors” (Mirati Therapeutics, Inc., priority 2019, dated 2022)
Where two headings read alike, the source gives them in different places.

Experiments:
[1] = biological target: PRMT5/MEP50 complex (Homo sapiens (Human), UniProt O14744); experiment: PRMT5:MEP50 HotSpot Assay (full-length histone H2A substrate, plus and minus MTA); type: biochemical; conditions: IC50 + 2 μM MTA, in the presence of 2 μM MTA
Summary of the method: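 Tritium incorporated into recombinant full-length histone H2A was counted by scintillation after stopped reactions were captured on filter paper.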

[2] = tested on: PRMT5-dependent Symmetric Di-methyl Arginine signal in HCT116 parental cells; experiment: SYM11 In-Cell Western, HCT116 parental; type: cell-based; conditions: Homo sapiens, HCT-116, 96 h, 4 days of treatment, SYM11/DRAQ5 ratio
Procedure: (§1) Control samples were analyzed in parallel.
Briefly, on Day 0, 2,000 HCT116 parental or HCT116 homozygous MTAP knockout cells were seeded in 96 well plates in McCoy's 5A supplemented with 10% fetal bovine serum and pen/strep and the cells were incubated overnight at 37° C. plus 5% CO2. The following day, cells were treated with DMSO vehicle control or a dose response of PRMT5 inhibitors, and incubated at 37° C. plus 5% CO^2 for four days.
After 4 days of treatment, the cells were fixed by adding 50 μl of 4% paraformaldehyde solution to each well and the cells were incubated for 20 min at room temperature. The paraformaldehyde solution was removed, 150 μl of ice-cold methanol was added and the plate was placed −20° C. for 10 minutes. The methanol was removed, 150 μl of Odyssey Blocking buffer+0.05% Tween20 was added and the plate was incubated at room temperature with shaking for one hour.
The primary SYM11 antibody solution was removed by aspiration and the wells were washed three consecutive times with phosphate buffered saline containing 0.1% Tween-20 (PBST).
The secondary antibody solution was removed by aspiration and the wells were washed three consecutive times with PB ST.
The SYM11 signal and the DRAQ5 signal were quantified using a Li-Cor Odyssey machine reading at […], respectively. The SYM11/DRAQ5 ratio was used to calculate the inhibition of Symmetric Dimethyl Arginine as percent of DMSO control.

[3] = tested on: HCT116 homozygous MTAP knockout cells; experiment: Proliferation assay (CellTiter-Glo, 10 days of treatment), HCT116 MTAP knockout; type: cell-based; conditions: Homo sapiens, HCT-116, 240 h, read-out: Proliferation HCT116MTAP_KO IC50
Summary of the method: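 Viability of the CRISPR/Cas9 homozygous MTAP-knockout HCT116 line was read by CellTiter-Glo after 10 days of PRMT5 inhibitor exposure, with IC50 derived from the dose response. Compound was given the day after seeding and renewed at an identical concentration when cells were split 1:10 on day 6.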

[4] = tested on: PRMT5-dependent Symmetric Di-methyl Arginine signal in HCT116 homozygous MTAP knockout cells; experiment: SYM11 In-Cell Western, HCT116 MTAP knockout; type: cell-based; conditions: Homo sapiens, HCT-116, 96 h
[5] = tested on: HCT116 parental cells; experiment: Proliferation assay (CellTiter-Glo, 10 days of treatment), HCT116 parental; type: cell-based; conditions: Homo sapiens, HCT-116, 240 h
Procedure: as §1
Briefly, on Day 0, 250 HCT116 parental or HCT116 homozygous MTAP knockout cell were seeded in 96 well plates in McCoy's 5A supplemented with 10% fetal bovine serum and pen/strep and the cells were incubated overnight at 37° C. plus 5% CO2.
The following day, cells were treated with DMSO vehicle control or a dose response of PRMT5 inhibitors and incubated at 37 C plus 5% CO2 for five days. On Day 6, the cells were trypsinized and split 1:10 into new 96-well plates with fresh medium containing the same concentration of PRMT5 inhibitor and incubated for an additional 5 days at 37° C. plus 5% CO^2.
On Day 11, the viability of the cells was measured using a CTG assay kit (CellTiter-Glo; Promega cat.no G7573) in accordance with the manufacturer's instructions. The IC50 values for each compound after 10 days of treatment were calculated using GraphPad PRISM software.

[6] = HCT116 homozygous MTAP knockout cells, 4 days of treatment, SYM11/DRAQ5 ratio, read-out: In-cell-Western (SYM11) HCT116 MTAP_KO IC50

Chain of PRMT5/MEP50 complex (O14744 2-637): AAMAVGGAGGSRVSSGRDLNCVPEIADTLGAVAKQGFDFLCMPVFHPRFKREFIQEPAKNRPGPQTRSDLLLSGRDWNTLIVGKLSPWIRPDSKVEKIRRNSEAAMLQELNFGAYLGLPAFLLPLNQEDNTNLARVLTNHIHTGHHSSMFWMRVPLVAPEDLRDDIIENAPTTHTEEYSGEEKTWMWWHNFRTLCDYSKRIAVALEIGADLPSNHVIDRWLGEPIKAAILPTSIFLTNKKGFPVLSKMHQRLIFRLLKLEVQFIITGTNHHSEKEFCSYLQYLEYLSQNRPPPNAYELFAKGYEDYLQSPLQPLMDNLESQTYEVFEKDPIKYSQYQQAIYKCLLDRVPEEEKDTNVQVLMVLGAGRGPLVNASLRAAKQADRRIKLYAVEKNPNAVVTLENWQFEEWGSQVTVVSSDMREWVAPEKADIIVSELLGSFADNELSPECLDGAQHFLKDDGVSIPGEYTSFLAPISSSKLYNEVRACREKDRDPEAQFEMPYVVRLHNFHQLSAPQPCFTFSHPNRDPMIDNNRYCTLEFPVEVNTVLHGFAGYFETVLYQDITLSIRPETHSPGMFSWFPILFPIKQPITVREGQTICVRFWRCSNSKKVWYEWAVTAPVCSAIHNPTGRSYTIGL
Chain of PRMT5/MEP50 complex (Q9BQA1 2-342 partner): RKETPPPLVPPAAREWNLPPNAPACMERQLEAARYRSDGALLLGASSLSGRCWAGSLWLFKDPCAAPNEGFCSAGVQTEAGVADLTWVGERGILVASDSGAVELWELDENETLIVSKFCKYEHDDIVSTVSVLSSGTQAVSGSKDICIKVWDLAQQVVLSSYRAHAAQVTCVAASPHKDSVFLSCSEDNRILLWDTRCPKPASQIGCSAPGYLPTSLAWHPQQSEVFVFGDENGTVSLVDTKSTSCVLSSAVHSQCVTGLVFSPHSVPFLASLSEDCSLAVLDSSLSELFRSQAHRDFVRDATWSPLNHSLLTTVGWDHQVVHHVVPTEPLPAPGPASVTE

Compound | IC50 [1] [nM] | IC50 [2] [nM] | IC50 [3] [nM] | IC50 [4, 6] [nM] | IC50 [5] [nM] | IC50 ([4]; read-out: In-cell-Western (SYM11) HCT116 MTAP_KO IC50, HCT116 homozygous MTAP knockout cells, 4 days of treatment, SYM11/DRAQ5 ratio) [nM]
NCc1n[nH]c(=O)c2ccc(-c3cnc4[nH]cc(-c5ccccc5)c4c3)cc12 [Example 4-190, 4-(aminomethyl)-6-(3-phenyl-1H-pyrrolo[2,3-b]pyridin-5-yl)phthalazin-1(2H)-one] | 278 | > 3330 | 1980 | > 3330 | – | –
CCc1c(Cl)ccc(-c2c(-c3ccc4c(=O)[nH]nc(CN)c4c3)cnn2C)c1C#N [Example 4-199, 6-(4-(4-(aminomethyl)-1-oxo-1,2-dihydrophthalazin-6-yl)-1-methyl-1H-pyrazol-5-yl)-3-chloro-2-ethylbenzonitrile] | 276 | – | 120 | 2 | 8850 | –
CCc1c(OC)ccc(-c2c(-c3ccc4c(=O)[nH]nc(CN)c4c3)cnn2C)c1C#N [Example 4-201, 2-(4-(4-(aminomethyl)-1-oxo-1,2-dihydrophthalazin-6-yl)-1-methyl-1H-pyrazol-5-yl)-6-ethyl-5-methoxybenzonitrile] | 948 | – | 155 | 16 | > 10000 | –
Cn1ncc(-c2ccc3c(=O)[nH]nc(CN)c3c2)c1-c1c(F)cc2ccccc2c1C#N [Example 4-203, 2-(4-(4-(aminomethyl)-1-oxo-1,2-dihydrophthalazin-6-yl)-1-methyl-1H-pyrazol-5-yl)-3-fluoro-1-naphthonitrile] | – | 903 | 19 | 2 | 1210 | –
Cn1ncc(-c2ccc3c(=O)[nH]nc(CN)c3c2)c1-c1cc(C#N)c2ccccc2c1C#N [Example 4-207, 2-(4-(4-(aminomethyl)-1-oxo-1,2-dihydrophthalazin-6-yl)-1-methyl-1H-pyrazol-5-yl)naphthalene-1,4-dicarbonitrile] | – | > 10000 | 98 | 3 | – | –
Cn1ncc(-c2ccc3c(=O)[nH]nc(CN)c3c2)c1-c1c(F)c(Cl)cc(OC2CC2)c1C#N [Example 4-230, 2-(4-(4-(aminomethyl)-1-oxo-1,2-dihydrophthalazin-6-yl)-1-methyl-1H-pyrazol-5-yl)-4-chloro-6-cyclopropoxy-3-fluorobenzonitrile] | – | > 1000 | – | – | 1890 | 6
CCOc1ccc(-c2c(-c3ccc4c(=O)[nH]nc(CN)c4c3)cnn2C)cc1 [Example 4-254, 4-(aminomethyl)-6-[5-(4-ethoxyphenyl)-1-methyl-pyrazol-4-yl]-2H-phthalazin-1-one] | – | 3330 | 2170 | 377 | – | –
CCOc1cccc(-c2c(-c3cc(C)c4c(=O)[nH]nc(CN)c4c3)cnn2C)c1C#N [Example 10-9, 2-(4-(4-(aminomethyl)-8-methyl-1-oxo-1,2-dihydrophthalazin-6-yl)-1-methyl-1H-pyrazol-5-yl)-6-ethoxybenzonitrile] | 1930 | – | 489 | 8 | 9820 | –
Cn1ncc(-c2ccc3c(=O)[nH]nc(CN)c3c2)c1-c1cc(C2CCOC2)ccc1C#N (centres unmarked) [Example 12-8, 2-[4-[4-(aminomethyl)-1-oxo-2H-phthalazin-6-yl]-2-methyl-pyrazol-3-yl]-4-THF-3-yl-benzonitrile] | 3860 | – | 7800 | 2860 | – | –
